{"source": "patent US4059700A", "about": "“Dermal toxicity of solid compositions containing a montmorillonite type of clay and an organophosphorus pesticide” (priority 1976, dated 1977)", "key": {"insects and nematodes": {"tested_on": "insects and nematodes", "conditions": "food and fodder crops; cited from earlier work"}, "[1]": {"test": "Dermal toxicity of granular compositions (Example 2, Table I)", "conditions": "rabbit, in vivo, topical or ocular, male albino rabbits, 24 h contact, 14 days observation, read-out: LD50 in mg/kg Body Weight", "description": "Dermal toxicity of granular compositions of the present invention as compared to conventional granular compositions containing the same pesticide, using male albino rabbits as test animal.\n1. Five male albino rabbits weighing approximately 2.2 to 3.5 kilograms are selected for each dosage level. The hair is shaved from the entire trunk.\n2. Saran tubing or \"Vinylite\" film, VU 1900, 12 inches wide, 0.04 millimeters thick and of suitable length to fit around the rabbit.\n3. One felt cloth bandage measuring approximately 9×18 inches.\n4. Four pieces of 11/2 inches adhesive tape approximately 14 inches long.\n1. The granular composition to be tested is placed in the center of the plastic film and is moistened with water.\n2. The rabbits underside is moistened with water and the animals placed belly down on the material. The plastic film is then bought up and around the animal and secured at each end with strips of adhesive tape.\n3. The felt cloth is then placed under the belly and brought up and around the animal and secured to the body with the remaining two strips of adhesive tape.\n1. The animal is placed on the plastic film and is wrapped and the film secured with adhesive tape.\n2. The test material is then injected under the plastic with an appropriate size needle and syringe.\n3. […]\nBy the above procedure the dermal toxicity of the granular compositions prepared in Example 1 is determined. […]"}, "mammals": {"tested_on": "mammals", "conditions": "ingestion, inhalation or dermal absorption; cited from earlier work"}}, "data": [{"smiles": "CCOP(=S)(OCC)SCSC(C)(C)C", "values": [{"measurement": "control of a broad spectrum of insects and nematodes", "setting": "insects and nematodes", "value": "highly effective"}, {"measurement": "LD50 at 336 h", "setting": "[1]", "value": "1 to 1.4", "unit": "mg/kg"}, {"measurement": "toxicity to mammals when introduced into the mammalian circulatory system", "setting": "mammals", "value": "extremely toxic to mammals"}]}]}
